pIC50: −log10 of the molar value. Where two headings read alike, the source gives them in different places.
Experiments:
Assay in all cases: microbe, parasite or virus in culture
Format in all cases: cell-based, Hepatitis C virus (HCV)
Details in all cases: Replicon Assay A
[1] = tested on: HCV replicon 1A
Procedure, shortened: (§1)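 Read-out is replicon RNA per cell by real-time RT-PCR, normalised to cyclophilin mRNA amplified in the same well. Cells were exposed to compound for 3 days at 2000 cells/well in medium with 5% fetal bovine serum and 0.5% DMSO.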

[2] = tested on: HCV replicon 1AY93H
Procedure, shortened: as §1

[3] = tested on: HCV replicon 2B
Procedure, shortened: as §1

[4] = read-out: 1A Y93H IC50, HCV replicon 1A Y93H
[5] = read-out: 2B IC50, HCV replicon 2B
[6] = read-out: 1A Y93H IC50, replicon 1AY93H
[7] = Hepatitis C virus, HCV replicon 1A
[8] = Hepatitis C virus, read-out: 1A Y93H IC50, HCV replicon 1A Y93H
[9] = Hepatitis C virus, read-out: 2B IC50, HCV replicon 2B

Structure (SMILES) | pIC50 ([1]; HCV replicon 1A) | pIC50 [2, 4] | pIC50 [3, 5] | pIC50 ([1]; replicon 1A) | pIC50 [2, 6] | pIC50 ([3]; read-out: 2B IC50, replicon 2B) | other results
COC(=O)N[C@H](C(=O)N1CCC[C@H]1c1ncc(-c2cc(F)c3c(c2)OC(c2cc(C)c(C)s2)n2c-3cc3cc(-c4cnc([C@@H]5C[C@@H](F)CN5C(=O)[C@@H](NC(=O)OC)C(C)C)[nH]4)ccc32)[nH]1)C(C)C (single isomer, unassigned) [Compound 514] | 10.32 | 9.57 | 7.31 | – | – | – | –
CCc1ccc(C2Oc3cc(-c4cnc([C@@H]5CCCN5C(=O)[C@@H](NC(=O)OC)C(C)C)[nH]4)cc(F)c3-c3cc4cc(-c5cnc([C@@H]6C[C@H]7C[C@H]7N6C(=O)C(NC(=O)OC)C6CCOC(C)(C)C6)[nH]5)ccc4n32)s1 (single isomer, unassigned) [Compound 199] | – | – | – | 9.93 | 7.58 | 7.48 | –
COC(=O)N[C@H](C(=O)N1C[C@H](F)C[C@H]1c1ncc(-c2ccc3c(c2)OC(c2ccc(C)s2)n2c-3cc3cc(-c4cnc([C@@H]5C[C@H]6C[C@H]6N5C(=O)[C@@H](NC(=O)OC)C(C)C)[nH]4)ccc32)[nH]1)C(C)C (single isomer, unassigned) [Compound 708] | 10.74 | 10.38 | 8.52 | – | – | – | –
CCc1ccc(C2Oc3cc(-c4cnc([C@@H]5CCCN5C(=O)[C@@H](NC(=O)OC)C(C)C)[nH]4)cc(F)c3-c3cc4cc(-c5cnc([C@@H]6CCCN6C(=O)C(NC(=O)OC)C6C[C@@H](C)O[C@@H](C)C6)[nH]5)ccc4n32)s1 (single isomer, unassigned) [Compound 145] | – | – | – | 11.66 | 8.28 | 8.79 | –
COCc1ccc(C2Oc3cc(-c4cnc([C@@H]5CCCN5C(=O)[C@@H](NC(=O)OC)C(C)C)[nH]4)cc(F)c3-c3cc4cc(-c5c[nH]c([C@@H]6CCCN6C(=O)[C@@H](NC(=O)OC)C(C)C)n5)ccc4n32)s1 (single isomer, unassigned) [Compound 511] | – | 9.40 | 8.74 | – | – | – | pIC50 [1, 7]: 11.62
CCc1ccc(C2Oc3cc(-c4cnc([C@@H]5CCCN5C(=O)[C@@H](NC(=O)OC)C(C)C)[nH]4)cc(F)c3-c3cc4cc(-c5cnc([C@@H]6C[C@@H](F)CN6C(=O)C(NC(=O)OC)C6CCOC(C)(C)C6)[nH]5)ccc4n32)s1 (single isomer, unassigned) [Compound 261] | – | – | – | 11.82 | 10.37 | 8.01 | –
COC(=O)N[C@H](C(=O)N1CCC[C@H]1c1ncc(-c2cc(F)c3c(c2)OC(c2cc4c(s2)CCCO4)n2c-3cc3cc(-c4cnc([C@@H]5CCCN5C(=O)[C@@H](NC(=O)OC)C5CCOC(C)(C)C5)[nH]4)ccc32)[nH]1)C(C)C (single isomer, unassigned) [Compound 411] | 12.00 | 9.11 | 9.70 | – | – | – | –
COC(=O)N[C@H](C(=O)N1CCC[C@H]1c1ncc(-c2cc(F)c3c(c2)OC(c2cc4c(s2)CCCO4)n2c-3cc3cc(-c4cnc([C@@H]5CCCN5C(=O)[C@@H](NC(=O)OC)C5CCOC(C)(C)C5)[nH]4)ccc32)[nH]1)C(C)C (single isomer, unassigned) [Compound 412] | 11.03 | 11.10 | 11.30 | – | – | – | –
COC(=O)N[C@H](C(=O)N1CCC[C@H]1c1ncc(-c2cc(F)c3c(c2)OC(c2sc(C4CC4)cc2C)n2c-3cc3cc(-c4cnc([C@@H]5CCCN5C(=O)[C@@H](NC(=O)OC)C(C)C)[nH]4)ccc32)[nH]1)C(C)C (single isomer, unassigned) [Compound 329] | – | – | – | 11.92 | 9.03 | 9.22 | –
COC(=O)NC(C(=O)N1CCC[C@H]1c1ncc(-c2ccc3c(c2)cc2n3C(c3ccc(C4CC4)s3)Oc3cc(-c4cnc([C@@H]5C[C@H]6C[C@H]6N5C(=O)[C@@H](NC(=O)OC)C(C)C)[nH]4)cc(F)c3-2)[nH]1)C1C[C@@H](C)O[C@@H](C)C1 (single isomer, unassigned) [Compound 537] | 11.40 | 9.94 | 8.96 | – | – | – | –
CCc1ccc(C2Oc3cc(-c4cnc([C@@H]5CCCN5C(=O)[C@@H](NC(=O)OC)C(C)C)[nH]4)ccc3-c3c(F)c4cc(-c5cnc([C@@H]6CCCN6C(=O)[C@@H](NC(=O)OC)C(C)C)[nH]5)ccc4n32)s1 (single isomer, unassigned) [Compound 603] | 11.49 | 9.74 | 9.30 | – | – | – | –
COC(=O)N[C@H](C(=O)N1CCC[C@H]1c1nc(-c2ccc3c(c2)OC(c2cc4sccc4s2)n2c-3cc3cc(-c4c[nH]c([C@@H]5C[C@H]6C[C@H]6N5C(=O)[C@@H](NC(=O)OC)C5CCOCC5)n4)ccc32)c[nH]1)C(C)C (mixture of isomers) [Compound 726] | – | – | – | – | – | – | pIC50 [1, 7]: 11.20; pIC50 [2, 8]: 10.33; pIC50 [3, 9]: 9.80
COC(=O)N[C@H](C(=O)N1CCC[C@H]1c1ncc(-c2cc(F)c3c(c2)OC(c2cc4c(s2)C(C)(C)CC4)n2c-3cc3cc(-c4cnc([C@@H]5CCCN5C(=O)[C@@H](NC(=O)OC)C(C)C)[nH]4)ccc32)[nH]1)C(C)C (single isomer, unassigned) [Compound 392] | – | – | – | 11.42 | – | – | IC50 ([2]; Hepatitis C virus, read-out: 1A Y93H IC50 (nM), replicon 1AY93H): 0.0514 nM; IC50 ([3]; Hepatitis C virus, read-out: 2B IC50 (nM), replicon 2B): 0.373 nM
COC(=O)N[C@H](C(=O)N1CCC[C@H]1c1ncc(-c2ccc3c(c2)OC(c2cc(C)c(C)s2)n2c-3cc3cc(-c4cnc([C@@H]5C[C@H]6C[C@H]6N5C(=O)[C@@H](NC(=O)OC)C(C)C)[nH]4)ccc32)[nH]1)C(C)C (single isomer, unassigned) [Compound 503] | 10.17 | 8.75 | 8.12 | – | – | – | –
COC(=O)NC(C(=O)N1CCC[C@H]1c1ncc(-c2ccc3c(c2)cc2n3C(c3ccc(C4CC4)s3)Oc3cc(-c4cnc([C@@H]5CCCN5C(=O)[C@@H](NC(=O)OC)C(C)C)[nH]4)cc(F)c3-2)[nH]1)C1CN(C(=O)C2CC2)C1 (single isomer, unassigned) [Compound 269] | – | – | – | 11.59 | 9.55 | 9.60 | –
COC(=O)N[C@H](C(=O)N1C[C@H](F)C[C@H]1c1ncc(-c2ccc3c(c2)OC(c2ccc(C)s2)n2c-3cc3cc(-c4cnc([C@@H]5C[C@H]6C[C@H]6N5C(=O)[C@@H](NC(=O)OC)C(C)C)[nH]4)ccc32)[nH]1)C(C)C (single isomer, unassigned) [Compound 707] | 11.19 | 10.47 | 9.08 | – | – | – | –
COC(=O)N[C@H](C(=O)N1CCC[C@H]1c1ncc(-c2ccc3c(c2)OC(c2cc4ccccc4s2)n2c-3cc3cc(-c4cnc([C@@H]5C[C@@H](F)CN5C(=O)[C@@H](NC(=O)OC)C5CCOCC5)[nH]4)ccc32)[nH]1)C(C)C (single isomer, unassigned) [Compound 626] | – | 10.89 | 9.75 | – | – | – | pIC50 [1, 7]: 11.68
COC(=O)N[C@H](C(=O)N1CCC[C@H]1c1nc(-c2cc(F)c3c(c2)OC(c2ccc(C4CC4)s2)n2c-3cc3cc(-c4c[nH]c([C@@H]5C[C@H]6C[C@H]6N5C(=O)[C@@H](NC(=O)OC)[C@@H](C)OC)n4)ccc32)c[nH]1)C(C)C (mixture of isomers) [Compound 723] | – | – | – | – | – | – | pIC50 [1, 7]: 11.57; pIC50 [2, 8]: 10.34; pIC50 [3, 9]: 10.10
CCc1ccc(C2Oc3cc(-c4cnc([C@@H]5CCCN5C(=O)[C@@H](NC(=O)OC)C(C)C)[nH]4)cc(F)c3-c3cc4cc(-c5cnc([C@@H]6C[C@@H](F)CN6C(=O)C(NC(=O)OC)C6CCOC(C)(C)C6)[nH]5)ccc4n32)s1 (single isomer, unassigned) [Compound 260] | – | – | – | 12.00 | 10.33 | 7.93 | –

Source: patent US20160257697A1, “THIOPHENE-SUBSTITUTED TETRACYCLIC COMPOUNDS AND METHODS OFUSE THEREOF FOR THE TREATMENT OF VIRAL DISEASES” (priority 2013, published 2016)
